Source: article PMC9241945 (Microbiology Spectrum, 2022)

Biological target: T1, CTP synthase PyrG (Staphylococcus aureus, UniProt A6QIX1)
T1 construct: pyrG from S. aureus Newman in pET-28a, purified on Ni-NTA
Experiment: intrinsic fluorescence quenching titration
Type: binding

T1 sequence (A6QIX1 whole entry): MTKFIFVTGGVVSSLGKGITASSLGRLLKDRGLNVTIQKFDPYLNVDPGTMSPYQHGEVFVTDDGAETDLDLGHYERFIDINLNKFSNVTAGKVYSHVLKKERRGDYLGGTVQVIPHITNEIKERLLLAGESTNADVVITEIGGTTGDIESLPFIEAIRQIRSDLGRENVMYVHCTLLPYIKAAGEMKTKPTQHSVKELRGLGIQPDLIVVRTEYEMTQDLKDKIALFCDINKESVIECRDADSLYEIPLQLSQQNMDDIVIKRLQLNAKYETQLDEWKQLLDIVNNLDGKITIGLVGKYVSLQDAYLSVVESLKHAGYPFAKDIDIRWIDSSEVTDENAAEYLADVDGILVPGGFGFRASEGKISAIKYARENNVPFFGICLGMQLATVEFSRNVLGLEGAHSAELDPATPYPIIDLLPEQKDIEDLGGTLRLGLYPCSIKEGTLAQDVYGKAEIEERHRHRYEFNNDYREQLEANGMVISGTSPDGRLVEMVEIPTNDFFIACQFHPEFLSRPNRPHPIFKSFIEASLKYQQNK

Nc1ncnc2c1ncn2[C@@H]1O[C@H](COP(=O)(O)OP(=O)(O)OP(=O)(O)O)[C@@H](O)[C@H]1O [ATP]
Kd: 320 µM
